According to publication PMC7419507, “In vitro Cas9-assisted editing of modular polyketide synthase genes to produce desired natural product derivatives” (Nature Communications, 2020):
Where “and” joins values, the source holds several entries; their conditions need not be identical. Equal values may be shown once.

Legend:
[1] = Cytotoxicity assay (CellTiter-Glo, 72 h), SKOV-3; format: cell-based, human; conditions: human, raw replicate data, read-out: SKOV3 viability (%)
In short: (§1)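 1000 cells/well; 4 h settle, then 2-fold serial dilutions (0.5% DMSO final), 72 h, 37 °C/5% CO2. Read-out: CellTiter-Glo luminescence. Media: RPMI1640 + 10% FBS (Jurkat, MESO-1; Jurkat also Glutamax), DMEM + 10% FBS (SKOV-3).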

[2] = system: human ovarian adenocarcinoma SKOV-3 cells; test: Cytotoxicity assay (CellTiter-Glo, 72 h), SKOV-3; format: cell-based; conditions: raw replicate data
In short: as §1

T lymphoma Jurkat cells = test: Cytotoxicity assay (CellTiter-Glo, 72 h), Jurkat; format: cell-based; conditions: raw data (replicates)
In short: as §1

[3] = Cytotoxicity assay (CellTiter-Glo, 72 h), Jurkat; format: cell-based; conditions: human, Jurkat cells (T lymphoma), raw data (replicates)
In short: as §1

FKBP12 and mTOR = target: T1, FKBP12 and mTOR (Homo sapiens, UniProt P42345+P62942); test: Fluoppi analysis: induction of FKBP12-mTOR complex formation in transfected HeLa cells; format: cell-based; conditions: for Foci intensity: raw data, one replicate per line
T1 construct: host or cells: HeLa cells
T1 sequence (P42345 2025-2114 limits assumed): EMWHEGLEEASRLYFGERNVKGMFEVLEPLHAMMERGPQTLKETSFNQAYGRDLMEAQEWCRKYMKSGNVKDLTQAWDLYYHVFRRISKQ
T1 sequence (P62942 whole entry): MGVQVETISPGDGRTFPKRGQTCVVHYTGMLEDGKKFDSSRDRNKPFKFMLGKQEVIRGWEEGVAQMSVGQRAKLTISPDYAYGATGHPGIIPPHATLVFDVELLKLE
In short: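 HeLa cells co-transfected with phAG-mTOR and pAsh-FKBP12, seeded 3000 cells/well, then compound-treated 1 h after 24 h at 37 °C. Fixed, Hoechst-stained, imaged by high-content microscopy; foci fluorescence normalized to total cell fluorescence, EC50 computed.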

In the case of `CO[C@H]1C[C@@H]2CC[C@@H](C)[C@@](O)(O2)C(=O)C(=O)N2CCCC[C@H]2C(=O)O[C@H]([C@H](C)C[C@@H]2CC[C@@H](O)[C@H](OC)C2)CC(=O)[C@H](C)/C=C(\C)[C@@H](O)CC[C@H](C)/C=C/C=C/C=C/1C` [Compound 7], the viability at 72 h, 9.53674e-05 uM ([1]; SKOV-3 cells (ovarian adenocarcinoma), conc 9.53674e-5 uM) is reported as 101%, the viability at 72 h, 0.000190735 uM ([1]; SKOV-3 cells (ovarian adenocarcinoma), conc 0.000190735 uM) is reported as 101% and the viability at 72 h, 0.00038147 uM ([1]; SKOV-3 cells (ovarian adenocarcinoma), conc 0.00038147 uM) is reported as 98.2%. For the same molecule, the viability at 72 h, 0.000762939 uM ([1]; SKOV-3 cells (ovarian adenocarcinoma), conc 0.000762939 uM) was 98.7%, the viability at 72 h, 0.00152588 uM ([1]; SKOV-3 cells (ovarian adenocarcinoma), conc 0.00152588 uM) was 101% and the viability at 72 h, 0.00305176 uM ([1]; SKOV-3 cells (ovarian adenocarcinoma), conc 0.00305176 uM) was 94.8%. For the same molecule, the viability at 72 h, 0.00610352 uM ([1]; SKOV-3 cells (ovarian adenocarcinoma), conc 0.00610352 uM) was 98.4%, the viability at 72 h, 0.012207 uM ([1]; SKOV-3 cells (ovarian adenocarcinoma), conc 0.012207 uM) was 96.9% and the viability at 72 h, 0.0244141 uM ([1]; SKOV-3 cells (ovarian adenocarcinoma), conc 0.0244141 uM) was 94.4%. The viability at 72 h, 0.0488281 uM ([1]; SKOV-3 cells (ovarian adenocarcinoma), conc 0.0488281 uM) was 92.3%, the viability at 72 h, 0.0976562 uM ([1]; SKOV-3 cells (ovarian adenocarcinoma), conc 0.0976562 uM) was 88.5% and the viability at 72 h, 0.195312 uM ([1]; SKOV-3 cells (ovarian adenocarcinoma), conc 0.195312 uM) was 64.9%. It also gave a viability at 72 h, 0.390625 uM ([1]; SKOV-3 cells (ovarian adenocarcinoma), conc 0.390625 uM) of 75%, a viability at 72 h, 12.5 uM ([1]; SKOV-3 cells (ovarian adenocarcinoma), conc 12.5 uM) of 56.1% and a viability at 72 h, 25 uM ([1]; SKOV-3 cells (ovarian adenocarcinoma), conc 25 uM) of 30.8%. It also gave a viability at 72 h, 50 uM ([1]; SKOV-3 cells (ovarian adenocarcinoma), conc 50 uM) of 6.6%, a viability at 72 h, 0.78125 uM ([1]; SKOV-3 ovarian adenocarcinoma cells, conc 0.78125 uM) of 59.1% and a viability at 72 h, 1.5625 uM ([1]; SKOV-3 ovarian adenocarcinoma cells, conc 1.5625 uM) of 62%. For the same molecule, the viability at 72 h, 3.125 uM ([1]; SKOV-3 ovarian adenocarcinoma cells, conc 3.125 uM) was 59.9%, the viability at 72 h, 6.25 uM ([1]; SKOV-3 ovarian adenocarcinoma cells, conc 6.25 uM) was 61.9% and the “SKOV3 viability (%)” value ([2]; conc 9.53674e-5 uM) was 108.9% and 101.6%. The “SKOV3 viability (%)” value ([2]; conc 0.000190735 uM) was 101.5% and 97.4%, the “SKOV3 viability (%)” value ([2]; conc 0.00038147 uM) was 103.2% and 103.5% and the “SKOV3 viability (%)” value ([2]; conc 0.000762939 uM) was 102.5%. The “SKOV3 viability (%)” value ([2]; conc 0.00152588 uM) was 105.1% and 100.3%, the “SKOV3 viability (%)” value ([2]; conc 0.00305176 uM) was 94.9% and 97.9% and the “SKOV3 viability (%)” value ([2]; conc 0.00610352 uM) was 104.9% and 101.4%. The “SKOV3 viability (%)” value ([2]; conc 0.012207 uM) was 92.0% and 94.0%, the “SKOV3 viability (%)” value ([2]; conc 0.0244141 uM) was 99.4% and 102.3% and the “SKOV3 viability (%)” value ([2]; conc 0.0488281 uM) was 100.8% and 88.2%. For the same molecule, the “SKOV3 viability (%)” value ([2]; conc 0.0976562 uM) was 88.7% and 90.6%, the “SKOV3 viability (%)” value ([2]; conc 0.195312 uM) was 66.8% and 68.9% and the “SKOV3 viability (%)” value ([2]; conc 0.390625 uM) was 68.2% and 69.5%. For the same molecule, the “SKOV3 viability (%)” value ([2]; conc 0.78125 uM) was 60.2% and 57.4%, the “SKOV3 viability (%)” value ([2]; conc 1.5625 uM) was 64.2% and 69.2% and the “SKOV3 viability (%)” value ([2]; conc 3.125 uM) was 60.4% and 56.6%. The “SKOV3 viability (%)” value ([2]; conc 6.25 uM) was 60.8% and 65.6%, the “SKOV3 viability (%)” value ([2]; conc 12.5 uM) was 53.3% and 53.4% and the “SKOV3 viability (%)” value ([2]; conc 25 uM) was 31.4% and 36.3%. The “SKOV3 viability (%)” value ([2]; conc 50 uM) was 5.9% and 7.4%, the “Jurkat viability (%)” value (T lymphoma Jurkat cells; conc 9.53674e-5 uM) was 101.4% and 96.8% and the “Jurkat viability (%)” value (T lymphoma Jurkat cells; conc 0.000190735 uM) was 92.3% and 102.8%. The “Jurkat viability (%)” value (T lymphoma Jurkat cells; conc 0.00038147 uM) was 98.3% and 99.4%, the “Jurkat viability (%)” value (T lymphoma Jurkat cells; conc 0.000762939 uM) was 96.8% and 109.7% and the “Jurkat viability (%)” value (T lymphoma Jurkat cells; conc 0.00152588 uM) was 108.1% and 104.4%. The “Jurkat viability (%)” value (T lymphoma Jurkat cells; conc 0.00305176 uM) was 100.3% and 100.8%, the “Jurkat viability (%)” value (T lymphoma Jurkat cells; conc 0.00610352 uM) was 94.5% and 97.8% and the “Jurkat viability (%)” value (T lymphoma Jurkat cells; conc 0.012207 uM) was 91.0% and 94.3%. For the same molecule, the “Jurkat viability (%)” value (T lymphoma Jurkat cells; conc 0.0244141 uM) was 98.4% and 90.4%, the “Jurkat viability (%)” value (T lymphoma Jurkat cells; conc 0.0488281 uM) was 79.8% and 78.8% and the “Jurkat viability (%)” value (T lymphoma Jurkat cells; conc 0.0976562 uM) was 64.4% and 67.9%. The “Jurkat viability (%)” value (T lymphoma Jurkat cells; conc 0.195312 uM) was 41.4% and 44.6%, the “Jurkat viability (%)” value (T lymphoma Jurkat cells; conc 0.390625 uM) was 37.3% and 37.7% and the “Jurkat viability (%)” value (T lymphoma Jurkat cells; conc 0.78125 uM) was 29.3% and 29.8%. For the same molecule, the “Jurkat viability (%)” value (T lymphoma Jurkat cells; conc 1.5625 uM) was 28.3%, the “Jurkat viability (%)” value (T lymphoma Jurkat cells; conc 3.125 uM) was 25.8% and 24.4% and the “Jurkat viability (%)” value (T lymphoma Jurkat cells; conc 6.25 uM) was 23.0% and 23.1%. For the same molecule, the “Jurkat viability (%)” value (T lymphoma Jurkat cells; conc 12.5 uM) was 10.5% and 12.1%, the “Jurkat viability (%)” value (T lymphoma Jurkat cells; conc 25 uM) was 0.565% and 1.0% and the “Jurkat viability (%)” value (T lymphoma Jurkat cells; conc 50 uM) was 0.186% and 0.257%. For the same molecule, the viability at 72 h, 9.53674e-05 uM ([3]; conc 9.53674e-5 uM) was 100%, the viability at 72 h, 0.000190735 uM ([3]; conc 0.000190735 uM) was 95.1% and the viability at 72 h, 0.00038147 uM ([3]; conc 0.00038147 uM) was 102%. The viability at 72 h, 0.000762939 uM ([3]; conc 0.000762939 uM) was 100%, the viability at 72 h, 0.00152588 uM ([3]; conc 0.00152588 uM) was 105% and the viability at 72 h, 0.00305176 uM ([3]; conc 0.00305176 uM) was 93.5%. It also gave a viability at 72 h, 0.00610352 uM ([3]; conc 0.00610352 uM) of 96.7%, a viability at 72 h, 0.012207 uM ([3]; conc 0.012207 uM) of 90.6% and a viability at 72 h, 0.0244141 uM ([3]; conc 0.0244141 uM) of 98.9%. For the same molecule, the viability at 72 h, 0.0488281 uM ([3]; conc 0.0488281 uM) was 87%, the viability at 72 h, 0.0976562 uM ([3]; conc 0.0976562 uM) was 67% and the viability at 72 h, 0.195312 uM ([3]; conc 0.195312 uM) was 46.3%. It also gave a viability at 72 h, 0.390625 uM ([3]; conc 0.390625 uM) of 36%, a viability at 72 h, 0.78125 uM ([3]; conc 0.78125 uM) of 31% and a viability at 72 h, 1.5625 uM ([3]; conc 1.5625 uM) of 26.7%. It also gave a viability at 72 h, 3.125 uM ([3]; conc 3.125 uM) of 24.2%, a viability at 72 h, 6.25 uM ([3]; conc 6.25 uM) of 24.1% and a viability at 72 h, 12.5 uM ([3]; conc 12.5 uM) of 10.9%. For the same molecule, the viability at 72 h, 25 uM ([3]; conc 25 uM) was 0.741%, the viability at 72 h, 50 uM ([3]; conc 50 uM) was 0.258% and the “PPI-inducing (binding enhancing) activity between FKBP12 and mTOR compared with rapamycin (1), in words” value (FKBP12 and mTOR; Fluoppi) was “much less potent than 1”. The EC50 (FKBP12 and mTOR; Fluoppi, HeLa cells, 1 h treatment, three independent biological replicates, read-out: EC50, induction of the formation of FKBP-mTOR complex) was 0.32 µM, the Foci intensity (FKBP12 and mTOR; conc 9.53674e-5 uM) was 0.01546 and 0.009859 and 0.01479 and the Foci intensity (FKBP12 and mTOR; conc 0.000190735 uM) was 0.02291 and 0.01436 and 0.01269. For the same molecule, the Foci intensity (FKBP12 and mTOR; conc 0.00038147 uM) was 0.01763 and 0.009567 and 0.009808, the Foci intensity (FKBP12 and mTOR; conc 0.000762939 uM) was 0.02965 and 0.01327 and 0.0132 and the Foci intensity (FKBP12 and mTOR; conc 0.00152588 uM) was 0.01988 and 0.005935 and 0.01208. The Foci intensity (FKBP12 and mTOR; conc 0.00305176 uM) was 0.01996 and 0.02873 and 0.02267, the Foci intensity (FKBP12 and mTOR; conc 0.00610352 uM) was 0.009728 and 0.0229 and 0.03931 and the Foci intensity (FKBP12 and mTOR; conc 0.012207 uM) was 0.02585 and 0.06278 and 0.01094. For the same molecule, the Foci intensity (FKBP12 and mTOR; conc 0.0244141 uM) was 0.02982 and 0.02323 and 0.02961, the Foci intensity (FKBP12 and mTOR; conc 0.0488281 uM) was 0.03327 and 0.007263 and 0.02034 and the Foci intensity (FKBP12 and mTOR; conc 0.0976562 uM) was 0.0343 and 0.0166 and 0.04409. The Foci intensity (FKBP12 and mTOR; conc 0.195312 uM) was 0.1225 and 0.05897 and 0.08613, the Foci intensity (FKBP12 and mTOR; conc 0.390625 uM) was 0.2002 and 0.2003 and 0.254 and the Foci intensity (FKBP12 and mTOR; conc 0.78125 uM) was 0.2477 and 0.2297 and 0.3237. The Foci intensity (FKBP12 and mTOR; conc 1.5625 uM) was 0.2891 and 0.3472 and 0.3016, the Foci intensity (FKBP12 and mTOR; conc 3.125 uM) was 0.3418 and 0.3544 and 0.3825 and the Foci intensity (FKBP12 and mTOR; conc 6.25 uM) was 0.285 and 0.273 and 0.328. The Foci intensity (FKBP12 and mTOR; conc 12.5 uM) was 0.2778 and 0.3903 and 0.3448, the Foci intensity (FKBP12 and mTOR; conc 25 uM) was 0.3624 and 0.278 and 0.3289 and the Foci intensity (FKBP12 and mTOR; conc 50 uM) was 0.2714 and 0.2974 and 0.3445.
